From US10064863B2, “Formulations of 3-(5-amino-2-methyl-4-oxo-4H-quinazolin-3-yl)-piperidine-2,6-dione” (Celgene Corporation, priority 2015, dated 2018)

Experiment: Degradation of Compound A by hydrolysis
Type: physicochemical
Source text: In another aspect is an anhydrous pharmaceutical composition and dosage form. Such anhydrous forms can reduce or eliminate degradation of active ingredients in the composition resulting from heat or water exposure. For example, the addition of water (e.g., 5 percent) is widely accepted in the pharmaceutical arts as a means of simulating shelf-life, e.g., long-term storage in order to determine characteristics such as shelf-life or the stability of formulations over time. See, e.g., Jens T. Carstensen, Drug Stability: Principles & Practice, 2d. Ed., Marcel Dekker, NY, N.Y., 1995, pp. 379-80. The effect of water on a formulation can be of great significance since moisture or humidity are commonly encountered during manufacture, handling, packaging, storage, shipment, and use of formulations.

- degradation by hydrolysis: easily degraded by hydrolysis
Compound: Cc1nc2cccc(N)c2c(=O)n1C1CCC(=O)NC1=O (stereo not shown) [Compound A, 3-(5-amino-2-methyl-4-oxo-4H-quinazolin-3-yl)-piperidine-2,6-dione]
